According to patent US20090325877A1, “Combination Product of Receptor Tyrosine Kinase Inhibitor and Fatty Acid Synthase Inhibitor for Treating Cancer” (Wyeth, priority 2008, published 2009):
In brackets after ≈: the same amount, converted by molar mass. Read-outs that look alike come from different tables or passages of the source.

Columns and labels:
EGFR protein = EGFR protein and tyrosine phosphorylation by Western blot in A2780 cells; assay type: cell-based
[1] = system: A2780 ovarian cancer cells; assay: Formazan dye (MTT) in-vitro cell growth assay, A2780; assay type: cell-based; conditions: for IC50: Homo sapiens, 72 h
Protocol: Effect of FAS and ErbB inhibition on A2780 ovarian cancer cells (OCC). […] Cells were grown for three days in the presence of vehicle (0.1% DMSO) or synthetic inhibitor before cell number was estimated. Data in the charts represent means +/−SD of triplicate measurements.
Cells were plated at 0.5−5×10^3/well in 96-well plates. After adhesion, media ±drugs alone or in combination were added. Cell numbers were estimated after 3-5 days by using a colorimetric formazan dye assay (Biomedica, Vienna, Austria). Results (mean±SD, n=3) were expressed in percent of untreated (solvent) control. Statistical analysis of data from drug combination treatment experiments was performed using one-factorial ANOVA followed by Scheffe-test.
Yellow MTT (3-(4,5-Dimethylthiazol-2-yl)-2,5-diphenyltetrazolium bromide, a tetrazole) is reduced to purple formazan in the mitochondria of living cells (see Mosmann, T., J. Immunol. Methods, 65(1-2): 55-63, 1983).

EGFR mRNA = EGFR mRNA by RT-PCR and qRT-PCR in A2780 cells; assay type: cell-based, human
Protocol: RNA was extracted from the cells using TRI-REAGENT™ (Molecular Research Center, Cincinnati, Ohio) and subjected to reverse transcription—polymerase chain reaction (“RT-PCR”) using the TITAN ONE TUBE RT-PCR KIT™ system (Hoffmann-La Roche). […] Conditions for ErbB2 and GAPDH were: 50° C., 30 minutes; 94° C., 2 minutes; 10 cycles (94° C., 30 seconds; 51° C., 30 seconds; 68° C., 45 seconds); 25 cycles (94° C., 30 seconds; 51° C., 30 seconds; 68° C., 45 seconds +5 seconds autoextension) and 68° C., 7 minutes. […] Fragments were electrophoresed and stained with ethidium bromide.
Quantitative RT-PCR (“qRT-PCR”) was performed in the ABI PRISM 7000™ Sequence Detector (Applied Biosystems, Foster City, Calif.) using human EGFR, ErbB2, and FASN TaqMan® Gene Expression Assay systems (Applied Biosystems; Assay IDs: Hs00193306_m1, Hs00170433_m1, Hs00188012_m1) according to the manufacturer's instructions. β-actin and GAPDH (VIC™ and FAM labeled pre-developed TaqMan® Assay reagents, Applied Biosystems) were used as endogenous controls. EGFR, ErbB2, and FASN mRNA expression were calculated as described previously (Grunt, ibid).

C=C1C(=O)OC(CCCCCCCC)C1C(=O)O (centres unmarked) [C75, tetrahydro-3-methylene-2-oxo-5-n-octyl-4-furancarboxylic acid]
EGFR total protein, effect in words (EGFR protein): slowly and concordantly reduces
EGFR tyrosine phosphorylation (activity), effect in words (EGFR protein): slowly and concordantly reduces
IT50, EGFR phosphorylation (EGFR protein): 20 h
IT50, EGFR protein (EGFR protein): 29 h
IC50 (EGFR protein; Homo sapiens, Western blot): 3.6 µg/mL (≈ 14.2 µM)
in vitro growth inhibition (in words) ([1]; A2780, MTT assay, single drug): growth inhibitory activity
IC50 ([1]; A2780 OCC, each individual inhibitor, 50% reduction of cell growth, three days, n = 3-5, read-out: IC50 (μM) Mean +/− SD): 21.9 µM
IC50 ([1]; A2780 ovarian cancer cells, grown three days with inhibitor, read-out: IC50, growth of OCC (MTT assay)): 22 µM
EGFR mRNA, effect in words (EGFR mRNA): slowly and concordantly reduces
IC50 (EGFR mRNA; Homo sapiens, 72 h, after 3 days, read-out: IC50, down-regulation of EGFR mRNA): 6.5 µg/mL (≈ 25.6 µM)
IT50, EGFR mRNA (EGFR mRNA; at 7 μg/ml): about 29 hours
